Measured values published in patent publication US20250109127A1, “METHODS OF USE OF PHENOXYPROPYLAMINE COMPOUNDS TO TREAT DEPRESSION” (Minerva Neurosciences, Inc., priority 2013, published 2025).
Values joined by “and” are separate entries in the source; they are usually repeats but may differ in a detail not shown here. Equal entries are not always repeated.

Tested on: norepinephrin release in the rat prefrontal cortex
Experiment: Microdialysis: norepinephrine release in prefrontal cortex after I.P. administration
Type: in vivo
Conditions: for NOREPINEPHRIN in dialysate, MEAN / NOREPINEPHRIN in dialysate, individual animals: Citalopram 10 mg/kg I.P.
Description: The aim of the study was to evaluate, using microdialysis, the effects of an intraperitoneal (I.P.) administration in rats of three different doses of SON-117 on dopamine and its metabolites, serotonin and its metabolite (5-HIAA), and norepinephrine levels in prefrontal cortex.
Thirty-two adult male Wistar rats were used for the whole study (4 groups of eight animals planned for the study, Table 1).
Surgery was performed on rats weighing about 300 g at the beginning of the experiments. Rats were anaesthetized with Ketamine (50 mg/kg) & Xylazine (15 mg/kg) by intramuscular administration. The animals were placed in a stereotaxic apparatus in the flat-skull position at a constant setting of −3.3 mm between ear bars and the incisor bar. The animals were treated with a local anesthesic (xylocaine 1%, Astra Zeneca) and an analgesic (Temgesic, from Schering Plough, 0.05 mg/kg, s.c.). A rostrocaudal midline incision was made with a lancet to expose the dorsal skull surface. The “stereotaxic zero” was defined by the Bregma in accordance with Paxinos and Watson's atlas (1986). A hole was drilled in the skull with a drill and the meninges were pierced with a sterile needle to implant a CMA12 guide cannula which later received the dialysis probe.
Coordinates used for implanting guide cannula in prefrontal cortex from Bregma were anteroposterior 3.7 mm, mediolateral 0.8 mm, and dorsoventral −2 mm (top of the probe was at −5 mm). The guide cannula was fixed to the skull with two stainless steel screws (1.88 mm outside diameter) anchored. An application of dental cement was added. A plastic collar allowed each animal to be tethered to a Swivel assembly of the CMA 120 awake animal system. Following surgery, rats were kept in individual cages and allowed to recover for a minimum of 3-5 days before the experimentation. The rats were handled and put in plastic bowl for 10 min at least every day to habituate the animals to their new environment for the dialysis. An I.P. administration with saline was also performed every day.
Dialysis probes (CMA12/3 mm, membrane, 20 kD cut-off, Carnegie Medicine, Stockholm, Sweden), were carefully washed before inserting into the guide cannula. The wash was performed with the artificial cerebrospinal fluid (aCSF) medium (NaCl 147 mM, KCl 2.7 mM, CaCl2 1.2 mM, MgCl2 0.85 mM) at room temperature. The dialysis system was then equilibrated at 20° C. at a perfusion rate of 1 μl/min with a Carnegie pump (CMA100). All catheters (FEP tubing, internal volume of 1.2 μl/10 cm, and tubing adaptors) used for microdialysis were treated in the same conditions.
The probes duly prepared were inserted into the guide cannula and the CMA120 Swivel assembly secured to the animal using a plastic collar. Flow through the dialysis probe with aCSF was maintained at a rate of 1 μl/min during the whole experimentation. The first four fractions (corresponding to 2 hours) were discarded to avoid the effects of parenchymal disturbance and to ensure that an approximate steady-state level was reached. Fractions were then collected over a period of 8.5 h during which time the animals remained quiet. The dialysates were automatically collected with an autosampler (microfraction collector CMA 140, Carnegie Medicin) and stored at −80° C. until analysis. […] Perfusion was then maintained for 7 hours with aCSF. The dialysates (30 μl) were collected into 300 μl vials, transferred into dry ice and then kept frozen (−80° C.) until analysis. Frozen samples were shipped to a partner for analysis. At the end of the microdialysis study, a PBS with colored ink was perfused through the probe in order to visualize the dialyzed area.
Catecholamine assay: Concentrations of dopamine, DOPAC, HVA, 5-HIAA, 5-HT, and norepinephrin were determined for each sample by HPLC coupled with electrochemical detection. […]

In the case of `CN(C)CCCC1(c2ccc(F)cc2)OCc2cc(C#N)ccc21` (stereo not shown) [Citalopram, citalopram, reference compound], the “NOREPINEPHRIN in dialysate, MEAN” value (T0-T30 min) was 82.58 % of respective basal, the “NOREPINEPHRIN in dialysate, MEAN” value (T30-T1 h) was 78.71 % of respective basal and the “NOREPINEPHRIN in dialysate, individual animals” value (T30-T1 h) was 63.38 % of respective basal and 110.18 % of respective basal and 80.74 % of respective basal and 67.88 % of respective basal and 82.89 % of respective basal and 87.03 % of respective basal and 121.77 % of respective basal and 15.77 % of respective basal. The “NOREPINEPHRIN in dialysate, MEAN” value (T1 h 30-T2 h) was 79.06 % of respective basal, the “NOREPINEPHRIN in dialysate, individual animals” value (T1 h 30-T2 h) was 61.03 % of respective basal and 124.09 % of respective basal and 72.92 % of respective basal and 60.40 % of respective basal and 82.59 % of respective basal and 82.64 % of respective basal and 134.98 % of respective basal and 13.8 % of respective basal and the “NOREPINEPHRIN in dialysate, MEAN” value (T1 h-T1 h 30) was 79.69 % of respective basal. The “NOREPINEPHRIN in dialysate, individual animals” value (T1 h-T1 h 30) was 76.17 % of respective basal and 109.19 % of respective basal and 82.90 % of respective basal and 61.59 % of respective basal and 83.93 % of respective basal and 87.19 % of respective basal and 123.99 % of respective basal and 12.53 % of respective basal, the “NOREPINEPHRIN in dialysate, MEAN” value (T2 h 30-T3 h) was 71.56 % of respective basal and the “NOREPINEPHRIN in dialysate, individual animals” value (T2 h 30-T3 h) was 59.14 % of respective basal and 93.64 % of respective basal and 64.43 % of respective basal and 55.24 % of respective basal and 91.72 % of respective basal and 74.05 % of respective basal and 121.10 % of respective basal and 13.15 % of respective basal. The “NOREPINEPHRIN in dialysate, MEAN” value (T2 h-T2 h 30) was 76.38 % of respective basal, the “NOREPINEPHRIN in dialysate, individual animals” value (T2 h-T2 h 30) was 73.97 % of respective basal and 105.30 % of respective basal and 76.17 % of respective basal and 58.36 % of respective basal and 86.59 % of respective basal and 74.01 % of respective basal and 122.28 % of respective basal and 14.33 % of respective basal and the “NOREPINEPHRIN in dialysate, MEAN” value (T3 h 30-T4 h) was 75.03 % of respective basal. The “NOREPINEPHRIN in dialysate, individual animals” value (T3 h 30-T4 h) was 60.36 % of respective basal and 105.62 % of respective basal and 79.83 % of respective basal and 62.35 % of respective basal and 87.18 % of respective basal and 69.08 % of respective basal and 122.62 % of respective basal and 13.22 % of respective basal, the “NOREPINEPHRIN in dialysate, MEAN” value (T3 h-T3 h 30) was 71.85 % of respective basal and the “NOREPINEPHRIN in dialysate, individual animals” value (T3 h-T3 h 30) was 59.65 % of respective basal and 96.31 % of respective basal and 77.47 % of respective basal and 56.34 % of respective basal and 86.44 % of respective basal and 66.43 % of respective basal and 119.71 % of respective basal and 12.42 % of respective basal. For the same compound, the “NOREPINEPHRIN in dialysate, MEAN” value (T4 h 30-T5 h) was 79.44 % of respective basal, the “NOREPINEPHRIN in dialysate, individual animals” value (T4 h 30-T5 h) was 76.82 % of respective basal and 116.23 % of respective basal and 73.73 % of respective basal and 66.68 % of respective basal and 84.54 % of respective basal and 70.81 % of respective basal and 127.26 % of respective basal and 19.47 % of respective basal and the “NOREPINEPHRIN in dialysate, MEAN” value (T4 h-T4 h 30) was 79.54 % of respective basal. The “NOREPINEPHRIN in dialysate, individual animals” value (T4 h-T4 h 30) was 77.6 % of respective basal and 102.09 % of respective basal and 77.48 % of respective basal and 63.90 % of respective basal and 92.86 % of respective basal and 82.33 % of respective basal and 128.7 % of respective basal and 11.39 % of respective basal, the “NOREPINEPHRIN in dialysate, MEAN” value (T5 h 30-T6 h) was 81.93 % of respective basal and the “NOREPINEPHRIN in dialysate, individual animals” value (T5 h 30-T6 h) was 48.16 % of respective basal and 103.46 % of respective basal and 105.10 % of respective basal and 86.55 % of respective basal and 85.91 % of respective basal and 79.07 % of respective basal and 122.12 % of respective basal and 25.1 % of respective basal. For the same compound, the “NOREPINEPHRIN in dialysate, MEAN” value (T5 h-T5 h 30) was 77.65 % of respective basal, the “NOREPINEPHRIN in dialysate, individual animals” value (T5 h-T5 h 30) was 88.27 % of respective basal and 76.54 % of respective basal and 75.84 % of respective basal and 77.15 % of respective basal and 75.13 % of respective basal and 134.83 % of respective basal and 15.76 % of respective basal and the “NOREPINEPHRIN in dialysate, MEAN” value (T6 h 30-T7 h) was 79.84 % of respective basal. For the same compound, the “NOREPINEPHRIN in dialysate, individual animals” value (T6 h 30-T7 h) was 52.47 % of respective basal and 107.42 % of respective basal and 80.22 % of respective basal and 89.35 % of respective basal and 83.18 % of respective basal, the “NOREPINEPHRIN in dialysate, MEAN” value (T6 h-T6 h 30) was 78.38 % of respective basal and the “NOREPINEPHRIN in dialysate, individual animals” value (T6 h-T6 h 30) was 51.36 % of respective basal and 106.33 % of respective basal and 79.91 % of respective basal and 87.03 % of respective basal and 82.07 % of respective basal and 79.77 % of respective basal and 119.62 % of respective basal and 20.91 % of respective basal. For the same compound, the “NOREPINEPHRIN in dialysate, MEAN” value (T-30 min-T0 (pre-dose)) was 95.22 % of respective basal, the “NOREPINEPHRIN in dialysate, MEAN” value (T-1 h 30-T-1 h (pre-dose)) was 92.87 % of respective basal and the “NOREPINEPHRIN in dialysate, MEAN” value (T-1 h-T-30 min (pre-dose)) was 109.53 % of respective basal. The “NE concentration in prefrontal cortex, significant and stable slight decrease” value (citalopram 10 mg/kg I.P., from 0.5 h to 7 h after administration) was 72%.
